Results: PubChem BioAssay (NCI)
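Each compound was tested at five concentrations against cells in 96-well plates for 48 hours. Here, GI50 denotes the concentration required for 50% inhibition of growth. TGI is the concentration that stops growth completely.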

Legend:
Test in all cases: inhibition of tumour cell growth, NCI panel, 48 h
UO-31 renal = tested on: UO-31 renal
SW-620 colon = tested on: SW-620 colon
ACHN renal = tested on: ACHN renal
HOP-62 NSCLC = tested on: HOP-62 NSCLC
NCI/ADR-RES ovarian = tested on: NCI/ADR-RES ovarian
TK-10 renal = tested on: TK-10 renal
MALME-3M melanoma = tested on: MALME-3M melanoma
OVCAR-8 ovarian = tested on: OVCAR-8 ovarian
HOP-92 NSCLC = tested on: HOP-92 NSCLC
K-562 leukemia = tested on: K-562 leukemia

Row | Structure (SMILES) | GI50 (UO-31 renal) [µM] | TGI (UO-31 renal) [µM] | GI50 (SW-620 colon) [µM] | TGI (SW-620 colon) [µM] | GI50 (ACHN renal) [µM] | TGI (ACHN renal) [µM] | GI50 (HOP-62 NSCLC) [µM] | TGI (HOP-62 NSCLC) [µM] | GI50 (NCI/ADR-RES ovarian) [µM] | TGI (NCI/ADR-RES ovarian) [µM] | GI50 (TK-10 renal) [µM] | TGI (TK-10 renal) [µM] | GI50 (MALME-3M melanoma) [µM] | TGI (MALME-3M melanoma) [µM] | GI50 (OVCAR-8 ovarian) [µM] | TGI (OVCAR-8 ovarian) [µM] | GI50 (HOP-92 NSCLC) [µM] | TGI (HOP-92 NSCLC) [µM] | GI50 (K-562 leukemia) [µM] | TGI (K-562 leukemia) [µM]
1 | N#Cc1ccc(OC(=O)Nc2ccc(Cl)c(Cl)c2)cc1 | 2.99 | 24.8 | 3.31 | > 100 | 2.97 | 14.5 | 7.5 | 60.7 | 3.79 | > 100 | 3.85 | 33.9 | 3.81 | 20.6 | 3.3 | 44.8 | 1.9 | 7.34 | 3.4 | > 100
2 | CCCCCc1ccc(S(=O)(=O)Nc2cc(-c3csc(NC(C)=O)n3)ccc2N2CCN(C)CC2)cc1 | 3.53 | 7.57 | 1.31 | 4.72 | 4.87 | 9.24 | 5.51 | 12.2 | 4.54 | 9.18 | 6.09 | 11.7 | 4.05 | 9.11 | 5.82 | 13.1 | 3.68 | 8.84 | 1.03 | 3.4
3 | CCC(=O)Nc1ccc(N=NN(C)C)cc1 | – | > 100 | – | > 100 | – | > 100 | – | > 100 | – | > 100 | – | – | – | > 100 | – | > 100 | – | 90.2 | – | > 100
4 | CC1C(=O)OC2CC[N+]3([O-])CC=C(COC(=O)C(C)(O)C1(C)O)C23 (stereo unspecified) | – | – | – | > 100 | – | > 100 | – | > 100 | – | > 100 | – | > 100 | – | > 100 | – | > 100 | – | > 100 | – | > 100
5 | COC(C(=O)[C@@H](O)[C@@H](C)O)[C@@H]1Cc2cc3cc(O[C@H]4C[C@@H](O[C@H]5C[C@@H](O)[C@H](O)C(C)O5)[C@H](O)C(C)O4)c(C)c(O)c3c(O)c2C(=O)[C@H]1O[C@H]1C[C@@H](O[C@H]2C[C@@H](O[C@H]3C[C@@H](O)[C@H](OC)C(C)O3)[C@@H](O)C(C)O2)[C@H](O)C(C)O1 (stereo partly specified) | 0.0953 | 0.934 | 0.0197 | > 33.3 | 0.0831 | > 33.3 | 0.0151 | 0.717 | 6.93 | > 33.3 | – | 0.322 | 0.011 | 0.088 | 0.0286 | > 33.3 | 0.0122 | 1.27 | 0.0224 | > 33.3
6 | O=c1oc2ccc(Br)cc2c(=O)n1-c1ccc(F)cc1F | 1.28 | 5.93 | 2.96 | 16.7 | 2.44 | 7.99 | 2.45 | 8.3 | 2.9 | 30.5 | 4.53 | 19.2 | 1.59 | 5.87 | 2.81 | 24.2 | 0.425 | 4.74 | 2.4 | > 100
7 | O=C(OCC(OC(=O)c1ccccc1)C(OC(=O)c1ccccc1)C(OC(=O)c1ccccc1)c1cnn(-c2ccccc2)n1)c1ccccc1 (stereo unspecified) | – | > 100 | – | > 100 | – | > 100 | – | > 100 | – | > 100 | – | > 100 | – | > 100 | – | > 100 | – | > 100 | – | > 100
8 | CCCCCCCCCCN1CCC(N2CCCCC2)CC1 | 1 | 2.8 | 1.92 | 3.97 | 4.31 | 13.7 | 2.38 | 7.64 | 6.76 | 20.2 | 2.08 | 5.71 | 1.97 | 3.98 | 3.81 | 14 | 0.763 | 8.5 | 1.28 | 3.44
9 | Nc1ccccc1SC1CC(=O)N(c2ccc(Cl)c(Cl)c2)C1=O (stereo unspecified) | 11.7 | 45 | 56.5 | > 100 | 19.4 | 74.9 | 21 | 66.7 | 17.1 | > 100 | 20 | 53 | 15.6 | > 100 | 20 | 77.8 | 14.9 | 42.1 | 15 | > 100
10 | Cc1ccc(Nc2nnc(-c3ccc4c(c3)OCO4)o2)c(C)c1 | – | > 100 | – | > 100 | – | > 100 | – | > 100 | – | > 100 | – | > 100 | – | > 100 | – | > 100 | – | > 100 | – | > 100
11 | O=[N+]([O-])c1ccc(CSCc2ccc(Cl)cc2)cc1 | – | > 100 | – | > 100 | – | > 100 | – | > 100 | – | > 100 | – | > 100 | – | > 100 | – | > 100 | – | > 100 | – | > 100
12 | Cc1nn(C(=O)c2ccc(Cl)cc2)c2c1C(c1ccc(O)cc1)SC(N)=N2 (stereo unspecified) | – | – | – | > 10 | – | > 10 | – | > 10 | – | > 10 | – | > 10 | – | > 10 | – | > 10 | – | > 10 | – | > 10
13 | COCOc1ccc(C2(O)Oc3cc(OCOC)ccc3C2C)c(O)c1 (stereo unspecified) | – | 23.8 | – | 32.4 | – | 26.7 | – | 32 | – | 30.9 | – | 32.5 | – | 28.7 | – | 32 | – | 30.5 | – | 44.7
14 | CCOC(CN(C)C(=S)Nc1cccc2ccccc12)OCC | – | > 10 | – | > 10 | – | > 10 | – | > 10 | – | > 10 | – | > 10 | – | > 10 | – | > 10 | – | > 10 | – | > 10
15 | CC/C=C/C/C=C/C/C=C/C/C=C/C/C=C/C/C=C/CCC(=O)Nc1ccn([C@@H]2O[C@H](CO)[C@@H](O)C2(F)F)c(=O)n1 | 0.0486 | 4.28 | 0.148 | 47.6 | < 0.0132 | 14.6 | 0.0293 | 6.55 | 0.0386 | 16.9 | 39.1 | > 66.5 | 9.33 | 24.2 | 0.0345 | 9.55 | 0.652 | 30.5 | 0.16 | 33.4
